Data on 23 compounds can be found in patent US10023592B2, “Bromodomain inhibitors” (Celgene Quanticel Research, Inc., priority 2013, dated 2018).

The target in experiment [1] is BRD4(BD1) (Homo sapiens (Human), UniProt O60885). Kind of experiment: In vitro enzyme inhibition assay (BRD4 AlphaScreen). It counts as binding. In short, it runs like this:
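AlphaScreen proximity readout, using streptavidin donor and Ni-chelate acceptor beads at 5 μg/mL final, monitors biotin-H4 tetraacetylated peptide interaction with purified His-tagged BRD4.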

Experiment [2] has as its system Raji, human Burkitts lymphoma cells. Put plainly: Cell-MTS proliferation assay, Raji. The conditions noted are these: Homo sapiens, 168 hr. It counts as cell-based. The method, boiled down: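 Cells were seeded per 96-well at densities giving ~90% confluence by day 7 (Raji 15,000, HL-60 5,000, NCI-H460 3,000) and dosed 24 hr later with an 11-point dilution, 100 μM to 2.0 nM final. Seven-day MTS colorimetric read at OD490; IC50 from background-subtracted, DMSO-normalised values.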
For orientation: Tetrazolium dyes change colour on reduction, which living cells bring about.

Experiment [3] deals with HL-60, human proleukemia cells. Put plainly: Cell-MTS proliferation assay, HL-60. The note with it: Homo sapiens, 168 hr. It counts as cell-based. Here is the method:
(§1) The Cell-MTS assay is a 7-day plate-based colorimetric assay which quantifies the amount of newly generated NADH in the presence or absence of test compound. The NADH level is used for the quantification of cancer cell proliferation.
(§2) Established cancer cell lines with a variety of driving mutations were obtained from American Type Culture Collection (ATCC) and routinely passaged according to ATCC protocols. For routine assay, these cells were seeded at densities which enabled ˜90% confluence after 7 days of culture. Raji, human Burkitts lymphoma cells, (cMYC) were seeded at 15,000 cells per 96-well. HL-60, human proleukemia cells, (NRAS, p16, p53, c-Myc amplified) were seeded at 5,000 cells per 96-well. NCI-H460, human non-small cell lung cancer cells, (KRAS, PIK3CA, STLK11, p16) were seeded at 3,000 cells per 96-well. 24 hr after plating, cells received an 11-point dilution of test compound with final concentration ranges from 100 μM to 2.0 nM. […] At the end of this incubation period, 80 μL of media is removed and 20 μL of CellTiter 96® AQueous Non-Radioactive Cell Proliferation Assay soln (Promega) was added. The cells were incubated until the OD490 was >0.6. IC50 values were calculated using the IDBS XLfit software package and include background subtracted OD490 values and normalization to DMSO controls. Cellular proliferation IC50 values were uploaded and archived using the Chem Biography Platform.

The test system of experiment [4] is NCI-H460, human non-small cell lung cancer cells. Put plainly: Cell-MTS proliferation assay, NCI-H460. The note with it: Homo sapiens, 168 hr. It counts as cell-based. The method, then: as §1, §2
The mark [5] stands for this setting: in vitro enzyme inhibition assay.
Where [6] appears, read: Cell-MTS proliferation, Raji cells.
[7] abbreviates: Cell-MTS proliferation, HL-60 cells.
The mark [8] stands for this setting: Cell-MTS proliferation, NCI-H460 cells.
Setting [9] is: NCI-H460, Cell-MTS proliferation.
[10] abbreviates: Raji, Cell-MTS, class symbols A/B/C.
The mark [11] stands for this setting: HL-60, Cell-MTS, class symbols A/B/C.
Setting [12] is: NCI-H460, Cell-MTS, class symbols A/B/C.

Broadly, the IC50 is the point on the concentration scale where inhibition reaches its midpoint. Consider `Cn1cc(-c2cc(CS(C)(=O)=O)ccc2OCC(F)(F)F)c2ccccc2c1=O` [Example 488, 2-methyl-4-[5-(methylsulfonylmethyl)-2-(2,2,2-trifluoroethoxy)phenyl]isoquinolin-1-one], for which the 50% inhibitory concentration (IC50) is less than 500 nM in experiment [1] (setting [5]), less than 500 nM in experiment [2] (setting [6]), less than 500 nM in experiment [3] (setting [7]) and more than 5000 nM in experiment [4] (setting [8]).

For `CCS(=O)(=O)c1ccc(OCC2CC2)c(-c2cc(C3CC3)c(=O)n(C)c2)c1` [Example 280, 3-cyclopropyl-5-[2-(cyclopropylmethoxy)-5-ethylsulfonylphenyl]-1-methylpyridin-2-one], the IC50 in experiment [1] (setting [5]) is less than 500 nM; in experiment [2] (Raji, Cell-MTS proliferation) it was less than 500 nM; in experiment [3] (HL-60, Cell-MTS proliferation) it was less than 500 nM; in experiment [4] (setting [9]), more than 5000 nM.

For the compound `Cn1cc(-c2cc(CS(C)(=O)=O)ccc2OCC(F)(F)F)cc(Cl)c1=O` [Example 418, 3-chloro-1-methyl-5-[5-(methylsulfonylmethyl)-2-(2,2,2-trifluoroethoxy)phenyl]pyridin-2-one], the concentration for half-maximal inhibition (IC50) is less than 500 nM in experiment [1] (setting [5]), 500 to 5000 nM in experiment [2] (setting [6]), less than 500 nM in experiment [3] (setting [7]) and more than 5000 nM in experiment [4] (setting [8]).

For `Cn1cc(-c2cc(OCc3ccccc3)cc(S(C)(=O)=O)c2)c2ccoc2c1=O` [Example 349, 6-methyl-4-(3-methylsulfonyl-5-phenylmethoxyphenyl)furo[2,3-c]pyridin-7-one], the half-maximal inhibitory concentration (IC50) in experiment [1] (setting [5]) is less than 500 nM; in experiment [2] (Raji, Cell-MTS proliferation), less than 500 nM; in experiment [3] (HL-60, Cell-MTS proliferation), less than 500 nM; in experiment [4] (setting [9]), more than 5000 nM.

In the case of `CCS(=O)(=O)Nc1ccc(Oc2ccc(F)cc2F)c(-c2cc(O)c(=O)n(C)c2)c1` [Example 451, N-[4-(2,4-difluorophenoxy)-3-(5-hydroxy-1-methyl-6-oxopyridin-3-yl)phenyl]ethanesulfonamide], the IC50 is less than 500 nM in experiment [1] (setting [5]), less than 500 nM in experiment [3] (setting [7]) and more than 5000 nM in experiment [4] (setting [8]).

As to `Cn1cc(-c2cc(S(C)(=O)=O)ccc2O[C@H]2CC[C@H](N)CC2)c2ccccc2c1=O` [Example 182, 4-[2-(trans-4-aminocyclohexyl)oxy-5-methylsulfonylphenyl]-2-methylisoquinolin-1-one], the IC50 is less than 500 nM in experiment [1] (setting [5]); less than 500 nM in experiment [2] (Raji, Cell-MTS proliferation); less than 500 nM in experiment [3] (HL-60, Cell-MTS proliferation); more than 5000 nM in experiment [4] (setting [9]).

As to `CCS(=O)(=O)Cc1ccc(OCC(F)(F)F)c(-c2cn(C)c(=O)c3cncn23)c1` [Example 371, 5-[5-(ethylsulfonylmethyl)-2-(2,2,2-trifluoroethoxy)phenyl]-7-methylimidazo[1,5-a]pyrazin-8-one], the IC50 in experiment [1] (setting [5]) was 500 to 5000 nM; in experiment [2] (Raji, Cell-MTS proliferation) it was 500 to 5000 nM; in experiment [3] (HL-60, Cell-MTS proliferation), 500 to 5000 nM; in experiment [4] (setting [9]) it was more than 5000 nM.

Consider `CCN(c1ncc(OCC2CC2)c(-c2cc(C)c(=O)n(C)c2)n1)S(C)(=O)=O` [Example 162, N-[5-(cyclopropylmethoxy)-4-(1,5-dimethyl-6-oxopyridin-3-yl)pyrimidin-2-yl]-N-ethylmethanesulfonamide], for which the 50% inhibitory concentration (IC50) in experiment [1] (setting [5]) was less than 500 nM; in experiment [2] (Raji, Cell-MTS proliferation), less than 500 nM; in experiment [3] (HL-60, Cell-MTS proliferation), less than 500 nM; in experiment [4] (setting [9]) it was more than 5000 nM.

Turning to `Cc1cc(-c2nc(NS(C)(=O)=O)ncc2Oc2ccc(F)cc2F)cn(CC2CC2)c1=O` [Example 248, N-[4-[1-(cyclopropylmethyl)-5-methyl-6-oxopyridin-3-yl]-5-(2,4-difluorophenoxy)pyrimidin-2-yl]methanesulfonamide], the IC50 in experiment [1] (setting [5]) is less than 500 nM; in experiment [2] (Raji, Cell-MTS proliferation), less than 500 nM; in experiment [3] (HL-60, Cell-MTS proliferation) it was less than 500 nM; in experiment [4] (setting [9]) it was more than 5000 nM.

In the case of `Cn1cc(-c2cc(S(C)(=O)=O)ccc2OCC2CC2)cc(N)c1=O` [Example 116, 3-amino-5-[2-(cyclopropylmethoxy)-5-methylsulfonylphenyl]-1-methylpyridin-2-one], the IC50 in experiment [1] (class symbols A/B/C) is less than 500 nM; in experiment [2] (setting [10]), more than 5000 nM; in experiment [3] (setting [11]), 500 to 5000 nM; in experiment [4] (setting [12]), more than 5000 nM.

With `Cn1cc(-c2nc(NS(C)(=O)=O)ncc2OCC2CC2)c2c(c1=O)CCCC2` [Example 163, N-[5-(cyclopropylmethoxy)-4-(2-methyl-1-oxo-5,6,7,8-tetrahydroisoquinolin-4-yl)pyrimidin-2-yl]methanesulfonamide], the IC50 was less than 500 nM in experiment [1] (setting [5]); less than 500 nM in experiment [2] (Raji, Cell-MTS proliferation); 500 to 5000 nM in experiment [3] (HL-60, Cell-MTS proliferation); more than 5000 nM in experiment [4] (setting [9]).

Regarding `CCCc1ccc(S(C)(=O)=O)cc1-c1ccc(=O)n(C)c1` [Example 313, 1-methyl-5-(5-methylsulfonyl-2-propylphenyl)pyridin-2-one], the IC50 was 500 to 5000 nM in experiment [1] (setting [5]); more than 5000 nM in experiment [2] (Raji, Cell-MTS proliferation); 500 to 5000 nM in experiment [3] (HL-60, Cell-MTS proliferation); more than 5000 nM in experiment [4] (setting [9]).

Turning to `CCS(=O)(=O)c1ccc(O[C@H]2CC[C@H](O)CC2)c(-c2cn(C)c(=O)c3ccccc23)c1` [Example 181, 4-[5-ethylsulfonyl-2-(trans-4-hydroxycyclohexyl)oxyphenyl]-2-methylisoquinolin-1-one], the half-inhibitory concentration (IC50) is less than 500 nM in experiment [1] (setting [5]); less than 500 nM in experiment [2] (Raji, Cell-MTS proliferation); less than 500 nM in experiment [3] (HL-60, Cell-MTS proliferation); more than 5000 nM in experiment [4] (setting [9]).

As to `COCCn1cc(-c2cc(S(C)(=O)=O)ccc2OCC2CC2)cc(C)c1=O` [Example 244, 5-[2-(cyclopropylmethoxy)-5-methylsulfonylphenyl]-1-(2-methoxyethyl)-3-methylpyridin-2-one], the concentration for half-maximal inhibition (IC50) in experiment [1] (setting [5]) was 500 to 5000 nM; in experiment [2] (Raji, Cell-MTS proliferation), more than 5000 nM; in experiment [3] (HL-60, Cell-MTS proliferation), 500 to 5000 nM; in experiment [4] (setting [9]) it was more than 5000 nM.

Consider `Cc1cc(-c2cc(S(N)(=O)=O)ccc2NCC2CC2)cn(C)c1=O` [Example 452, 4-(cyclopropylmethylamino)-3-(1,5-dimethyl-6-oxopyridin-3-yl) benzenesulfonamide], for which the concentration for half-maximal inhibition (IC50) in experiment [1] (setting [5]) is 500 to 5000 nM; in experiment [3] (setting [7]) it was 500 to 5000 nM; in experiment [4] (setting [8]) it was more than 5000 nM.

Regarding `Cc1cc(-c2cc(OS(N)(=O)=O)ccc2OCC2CC2)cn(C)c1=O` [Example 215, [4-(cyclopropylmethoxy)-3-(1,5-dimethyl-6-oxopyridin-3-yl)phenyl]sulfamate], the IC50 in experiment [2] (Raji, Cell-MTS proliferation) was less than 500 nM; in experiment [3] (HL-60, Cell-MTS proliferation), less than 500 nM; in experiment [4] (setting [9]) it was more than 5000 nM.

For `CCS(=O)(=O)c1ccc(NCC2CC2)c(-c2cc(Cl)c(=O)n(C)c2)c1` [Example 275], the IC50 is less than 500 nM in experiment [2] (Raji, Cell-MTS proliferation); less than 500 nM in experiment [3] (HL-60, Cell-MTS proliferation); more than 5000 nM in experiment [4] (setting [9]).

Consider `Cc1c(-c2cc(NS(C)(=O)=O)ccc2Oc2ccc(F)cc2F)cn(C)c(=O)c1C` [Example 103, N-[4-(2,4-difluorophenoxy)-3-(1,4,5-trimethyl-6-oxopyridin-3-yl)phenyl]methanesulfonamide], for which the figures for the IC50 in experiment [2] (setting [10]), in experiment [3] (setting [11]) and in experiment [4] (setting [12]) were 500 to 5000 nM, less than 500 nM and more than 5000 nM, respectively.

For `Cc1cc(-c2cn(CS(C)(=O)=O)c(=O)cc2Oc2ccc(F)cc2F)cn(CC2CC2)c1=O` [Example 250], the IC50 is 500 to 5000 nM in experiment [2] (Raji, Cell-MTS proliferation); less than 500 nM in experiment [3] (HL-60, Cell-MTS proliferation); more than 5000 nM in experiment [4] (setting [9]).

Regarding `CCCOc1ccc(S(C)(=O)=O)cc1-c1cn(C)c(=O)c2cnc(-c3cnn(C)c3)nc12` [Example 228], the IC50 in experiment [2] (Raji, Cell-MTS proliferation) is 500 to 5000 nM; in experiment [3] (HL-60, Cell-MTS proliferation), less than 500 nM; in experiment [4] (setting [9]), more than 5000 nM.

With `Cn1cc(-c2cc(OS(N)(=O)=O)ccc2OCC2CC2)c2ccccc2c1=O` [Example 214, [4-(cyclopropylmethoxy)-3-(2-methyl-1-oxoisoquinolin-4-yl)phenyl]sulfamate], the half-maximal inhibitory concentration (IC50) was less than 500 nM in experiment [2] (Raji, Cell-MTS proliferation); less than 500 nM in experiment [3] (HL-60, Cell-MTS proliferation); more than 5000 nM in experiment [4] (setting [9]).

Consider `CCS(=O)(=O)Nc1ncc(Oc2ccc(F)cc2F)c(-c2cc(OC)c(=O)n(C)c2)n1` [Example 168, N-[5-(2,4-difluorophenoxy)-4-(5-methoxy-1-methyl-6-oxopyridin-3-yl)pyrimidin-2-yl]ethanesulfonamide], for which the half-maximal inhibitory concentration (IC50) is less than 500 nM in experiment [2] (Raji, Cell-MTS proliferation); less than 500 nM in experiment [3] (HL-60, Cell-MTS proliferation); more than 5000 nM in experiment [4] (setting [9]).

As for `CCS(=O)(=O)c1ccc(OCC2CC2)c(-c2cn(C)c(=O)c3c2OCC(=O)N3)c1` [Example 365, 8-[2-(cyclopropylmethoxy)-5-ethylsulfonylphenyl]-6-methyl-4H-pyrido[4,3-b][1,4]oxazine-3,5-dione], the IC50 was less than 500 nM in experiment [2] (Raji, Cell-MTS proliferation); less than 500 nM in experiment [3] (HL-60, Cell-MTS proliferation); more than 5000 nM in experiment [4] (setting [9]).
